Results published in paper PMC9036794, “Improving astaxanthin production in Escherichia coli by co-utilizing CrtZ enzymes with different substrate preference” (Microbial Cell Factories, 2022).

Key:
Format in all cases: cell-based
PAcrtZ [1] = molecular target: T1, PAcrtZ (Pantoea agglomerans, UniProt E9LFG1); assay: astaxanthin formed in canthaxanthin-producing E. coli, HPLC; conditions: engineered E. coli Can004 background (Ast014, Ast015), shake flask, 30 °C; conversion to astaxanthin; whole-cell titre only
T1 construct: gene crtZ; gene integrated into E. coli chromosome (manA site) under P-trc; whole-cell read-out

PCcrtZ [2] = molecular target: T2, PCcrtZ (Paracoccus sp. PC1, UniProt Q44262); assay: as above; conditions: engineered E. coli Can004 background (Ast016, Ast017), shake flask, 30 °C; conversion to astaxanthin; whole-cell titre only
T2 construct: gene crtZ; synthesized gene, integrated into E. coli chromosome (manA site) under P-trc; whole-cell read-out
T2 sequence (Q44262 1-162): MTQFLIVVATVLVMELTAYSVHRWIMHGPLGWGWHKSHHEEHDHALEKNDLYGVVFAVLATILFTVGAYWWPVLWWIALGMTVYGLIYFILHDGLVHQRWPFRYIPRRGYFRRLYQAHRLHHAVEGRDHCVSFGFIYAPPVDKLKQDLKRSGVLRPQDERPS

PAcrtZ [3] = molecular target: T1, PAcrtZ; assay: zeaxanthin formed in beta-carotene-producing E. coli, HPLC; conditions: engineered E. coli CAR032 background (Zea003, Zea004), shake flask, 30 °C; conversion to zeaxanthin; whole-cell titre only
PCcrtZ [4] = molecular target: T2, PCcrtZ; assay: as above; conditions: engineered E. coli CAR032 background (Zea001, Zea002), shake flask, 30 °C; conversion to zeaxanthin, weak; whole-cell titre only
From the text: zeaxanthin formed in beta-carotene-producing E. coli, HPLC on PCcrtZ | PCcrtZ from Paracoccus sp.

crtW* = molecular target: T3, crtW* (Brevundimonas sp. NBRC 101024, UniProt Q4W8B8); assay: canthaxanthin formed in beta-carotene-producing E. coli, HPLC; conditions: engineered E. coli (Can003, Can004), shake flask, 30 °C; conversion to canthaxanthin; whole-cell titre only
T3 construct: integrated into E. coli chromosome (mgsA, lacZ sites) under P-trc; whole-cell read-out
T3 sequence (Q4W8B8 1-244): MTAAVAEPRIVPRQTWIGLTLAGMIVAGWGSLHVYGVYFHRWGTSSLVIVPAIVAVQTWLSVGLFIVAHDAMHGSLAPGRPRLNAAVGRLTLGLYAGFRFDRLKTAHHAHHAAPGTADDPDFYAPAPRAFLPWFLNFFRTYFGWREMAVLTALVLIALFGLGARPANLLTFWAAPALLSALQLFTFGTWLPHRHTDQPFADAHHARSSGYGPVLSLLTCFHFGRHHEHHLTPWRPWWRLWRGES

T1 sequence (E9LFG1 entry or part of it): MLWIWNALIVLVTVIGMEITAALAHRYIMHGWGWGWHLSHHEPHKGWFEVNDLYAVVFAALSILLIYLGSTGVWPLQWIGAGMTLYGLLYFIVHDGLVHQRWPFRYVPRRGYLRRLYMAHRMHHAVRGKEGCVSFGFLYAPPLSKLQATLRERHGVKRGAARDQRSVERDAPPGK

Row | Compound | astaxanthin formed in canthaxanthin-producing E. coli, HPLC (PAcrtZ [1]) | astaxanthin formed in canthaxanthin-producing E. coli, HPLC (PCcrtZ [2]) | zeaxanthin formed in beta-carotene-producing E. coli, HPLC (PAcrtZ [3]) | zeaxanthin formed in beta-carotene-producing E. coli, HPLC (PCcrtZ [4]) | canthaxanthin formed in beta-carotene-producing E. coli, HPLC (crtW*)
1 | CC1=C(/C=C/C(C)=C/C=C/C(C)=C/C=C/C=C(C)/C=C/C=C(C)/C=C/C2=C(C)C(=O)CCC2(C)C)C(C)(C)CCC1=O [canthaxanthin] | Ast014 (Can004 with one copy of PAcrtZ) | Ast016 (Can004 with one copy of PCcrtZ) produced similar amounts of astaxanthin |  |  | 
2 | CC1=C(/C=C/C(C)=C/C=C/C(C)=C/C=C/C=C(C)/C=C/C=C(C)/C=C/C2=C(C)CCCC2(C)C)C(C)(C)CCC1 [β-carotene] |  |  | PAcrtZ from P. agglomerans therefore exhibited a substrate preference for β-carotene | PCcrtZ from Paracoccus sp. PC1 showed weak activity in the conversion of β-carotene into zeaxanthin | CrtW converts β-carotene into keto-carotenoids
